Source: US9290503B2, “Tricyclic compound derivatives useful in the treatment of neoplastic diseases, inflammatory disorders and immunomodulatory disorders” (CHEMBRIDGE CORPORATION, priority 2006, dated 2016)

Key:
Format in all cases: cell-based
CPM2 = experiment: Cell proliferation assay, MTT, CPM2; settings: Homo sapiens, 72 h, standard 3-day proliferation assay
From the text: (§1) IGF1R and other tyrosine kinase inhibitors can inhibit the proliferation of certain cancer cell lines indicating their possible therapeutic utility for treating the corresponding cancer types. Cancer cell lines of interest and control normal lines, including CHO, HEK293, BA/F3, COLO205, PC3, DU145, MCF7, Panc1, ACHN, Hep G2, H460, K562, TT, U87-MG, CAOV-3, SK-MEL5, Karpas 299 and human multiple myeloma cell lines H929, MM1s, MM1r, UTMC2, CPM2, KMS11, My5, KMS12PE, My7, JJN3, KMS18, U266, SKMM2, RPMI-8226 are plated in white, clear-bottomed 384-well cell culture plates at 2500-5000 cells per well and supplied with dilutions of tested compounds After a desired period of time (typically 3 days), the number of viable cells is quantitated by using Cell Titer-Glo Luminescent Cell Viability Assay (Promega), a cell proliferation assay system based on detection of total amount of ATP present as a measure of cell metabolic activity. The plated cells are mixed with the Cell Titer-Glo developing reagent and counted in a luminescence multiwell plate reader according to the standard manufacturer's protocol to generate IC50 curves for cell proliferation inhibition. […] Alternatively, viable cells are quantitated by using the conventional colorimetric MTT assay. […] The formazan is then solubilized, and the concentration determined by optical density at 570 nm. […]

KMS12PE = experiment: Cell proliferation assay, MTT, KMS12PE; settings: Homo sapiens, KMS-12-PE, 72 h, standard 3-day proliferation assay
From the text: as §1

RPMI-8226 = experiment: Cell proliferation assay, MTT, RPMI-8226; settings: Homo sapiens, RPMI-8226, 72 h, standard 3-day proliferation assay
From the text: as §1

KMS11 = experiment: Cell proliferation assay, MTT, KMS11; settings: Homo sapiens, KMS-11, 72 h, standard 3-day proliferation assay
From the text: as §1

SKMM2 = experiment: Cell proliferation assay, MTT, SKMM2; settings: Homo sapiens, SK-MM-2, 72 h, standard 3-day proliferation assay
From the text: as §1

KMS18 = experiment: Cell proliferation assay, MTT, KMS18; settings: Homo sapiens, KMS18, 72 h, standard 3-day proliferation assay
From the text: as §1

[1] = system: CHO (chinese hamster ovary); experiment: Cell proliferation assay, MTT, CHO; settings: Cricetulus griseus, 72 h, standard 3-day proliferation assay
From the text: as §1

My7 = experiment: Cell proliferation assay, MTT, My7; settings: Homo sapiens, 72 h, standard 3-day proliferation assay
From the text: as §1

U266 = experiment: Cell proliferation assay, MTT, U266; settings: Homo sapiens, U-266, 72 h, standard 3-day proliferation assay
From the text: as §1

MM1r = experiment: Cell proliferation assay, MTT, MM1r; settings: Homo sapiens, MM.1R, 72 h, standard 3-day proliferation assay
From the text: as §1

JJN3 = experiment: Cell proliferation assay, MTT, JJN3; settings: Homo sapiens, JJN-3, 72 h, standard 3-day proliferation assay
From the text: as §1

My5 = experiment: Cell proliferation assay, MTT, My5; settings: Homo sapiens, 72 h, standard 3-day proliferation assay
From the text: as §1

MM1s = experiment: Cell proliferation assay, MTT, MM1s; settings: Homo sapiens, MM1.S, 72 h, standard 3-day proliferation assay
From the text: as §1

H929 = experiment: Cell proliferation assay, MTT, H929; settings: Homo sapiens, NCI-H929, 72 h, standard 3-day proliferation assay
From the text: as §1

[2] = system: HEK293 (human normal embryonic kidney); experiment: Cell proliferation assay, MTT, HEK293; settings: HEK293, 72 h, standard 3-day proliferation assay, read-out: HEK IC50
From the text: as §1

UTMC2 = experiment: Cell proliferation assay, MTT, UTMC2; settings: Homo sapiens, UTMC2, 72 h, standard 3-day proliferation assay
From the text: as §1

IGF1 receptor = target: T1, IGF1 receptor (Homo sapiens, UniProt P08069); experiment: ELISA-based assay of IGF1 receptor autophosphorylation inhibition in cells; settings: MCF7 cells, read-out: MCF7 IGF1R Phosphorylation IC50
T1 construct: MCF7 human breast cancer cells expressing IGF1 receptor; endogenous in cells; host or cells: MCF7 human breast cancer cells
Procedure: In another embodiment, compounds that interact with the IGF1R kinase domain are tested in a cell-based assay system. In accordance with this embodiment, cells expressing a full-length IGF1 receptor or a fragment thereof containing the IGF1R kinase domain, are contacted with a candidate or a control compound and the ability of the compound to block tyrosine kinase activity of IGF1R within a cell is determined. This assay may be used to screen a single compound or a large library of candidate compounds. […] The ability of the candidate compound to inhibit IGF1R kinase activity can be determined by methods known to those skilled in the art. For example, the inhibition can be determined by ELISA-type assay or Western blot analysis with cell lysates or immunoprecipitated IGF1R receptor using various anti-IGF1R and anti-phosphotyrosine antibodies.
In general, cells expressing IGF1R are treated with modulators (i.e., inhibitors or activators) of IGF1R kinase activity and cell lysates are produced from these treated cells. IGF1Rs are isolated from the lysate by immunoprecipitation and analyzed for phosphotyrosine content. Alternatively, or in addition, cellular protein substrates phosphorylated by IGFR may be immunoprecipitated from the lysates and their degree of tyrosine phosphorylation determined. […]

T1 sequence (P08069 31-1367): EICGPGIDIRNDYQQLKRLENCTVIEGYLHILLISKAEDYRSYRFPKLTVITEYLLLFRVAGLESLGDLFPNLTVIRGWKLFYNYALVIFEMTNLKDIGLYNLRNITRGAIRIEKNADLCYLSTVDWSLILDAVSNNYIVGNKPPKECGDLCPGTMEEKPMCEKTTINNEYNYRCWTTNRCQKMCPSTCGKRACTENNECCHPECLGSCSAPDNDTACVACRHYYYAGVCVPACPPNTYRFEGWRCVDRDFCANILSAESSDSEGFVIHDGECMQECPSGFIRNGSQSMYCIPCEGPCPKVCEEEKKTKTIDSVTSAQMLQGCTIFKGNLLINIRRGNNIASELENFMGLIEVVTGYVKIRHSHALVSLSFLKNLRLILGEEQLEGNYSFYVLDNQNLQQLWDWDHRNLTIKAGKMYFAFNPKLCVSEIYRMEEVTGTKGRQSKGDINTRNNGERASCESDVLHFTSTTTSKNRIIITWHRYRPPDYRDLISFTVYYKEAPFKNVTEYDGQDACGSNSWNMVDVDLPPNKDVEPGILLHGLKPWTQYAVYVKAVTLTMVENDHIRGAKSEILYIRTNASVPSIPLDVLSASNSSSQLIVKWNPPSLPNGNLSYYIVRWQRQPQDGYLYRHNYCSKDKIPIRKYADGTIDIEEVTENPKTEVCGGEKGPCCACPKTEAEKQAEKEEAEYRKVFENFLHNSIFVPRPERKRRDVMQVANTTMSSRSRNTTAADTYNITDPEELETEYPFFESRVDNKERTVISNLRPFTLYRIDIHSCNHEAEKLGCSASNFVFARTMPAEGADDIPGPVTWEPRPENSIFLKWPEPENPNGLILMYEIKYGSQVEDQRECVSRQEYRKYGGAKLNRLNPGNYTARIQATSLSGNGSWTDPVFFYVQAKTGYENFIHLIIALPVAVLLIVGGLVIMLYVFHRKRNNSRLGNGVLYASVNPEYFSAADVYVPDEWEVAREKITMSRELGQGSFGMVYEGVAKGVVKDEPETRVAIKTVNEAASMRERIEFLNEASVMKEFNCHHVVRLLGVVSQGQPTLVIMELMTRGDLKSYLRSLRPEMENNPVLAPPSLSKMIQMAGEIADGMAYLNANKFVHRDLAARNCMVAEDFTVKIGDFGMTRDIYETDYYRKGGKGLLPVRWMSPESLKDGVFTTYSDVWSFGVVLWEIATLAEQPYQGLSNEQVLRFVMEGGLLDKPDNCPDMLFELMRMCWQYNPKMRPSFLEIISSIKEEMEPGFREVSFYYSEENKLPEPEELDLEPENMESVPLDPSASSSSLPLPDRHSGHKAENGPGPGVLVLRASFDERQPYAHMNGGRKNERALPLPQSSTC

Row | IC50 (RPMI-8226) [µM] | IC50 (SKMM2) [µM] | IC50 (U266) [µM] | IC50 (MM1r) [µM] | IC50 (MM1s) [µM] | IC50 (H929) [µM] | IC50 (IGF1 receptor) [µM] | SMILES | IC50 (CPM2) [µM] | IC50 (KMS12PE) [µM] | IC50 (KMS11) [µM] | IC50 (KMS18) [µM] | IC50 [1] [µM] | IC50 (My7) [µM] | IC50 (JJN3) [µM] | IC50 (My5) [µM] | IC50 [2] [µM] | IC50 (UTMC2) [µM]
1 | 5 to 20 | 1 to 5 | 1 to 5 | 1 to 5 | 0.5 to 1 | 0.5 to 1 |  | Cc1ccc(OCC(=O)CNc2cc[nH]c(=O)c2C2Nc3cc4c(cc3N2)C(=O)N(C2CCN(CCS(C)(=O)=O)CC2)C4)c(C)c1 (centres unmarked) | 1 to 5 | 1 to 5 | 1 to 5 | 5 to 20 | ≥ 20 | 1 to 5 | 1 to 5 | 5 to 20 | ≥ 20 | < 0.5
2 |  |  |  |  |  |  | > 15 | CN1CCC(N2C(=O)c3cc4nc(-c5c(NCC(O)c6ccncc6)cc[nH]c5=O)[nH]c4cc3C2=O)CC1 (centres unmarked) [compound 7] |  |  |  |  |  |  |  |  |  | 
